From PubChem BioAssay AID1963866 (Molecular Pharmacology Branch, DTP, NCI, 2024)

Tested on: PDC KRAS tumor spheroids with HUVEC/MSC, viability
Assay: Anticancer human tumor 349418-098-R-PDC patient-derived lung adenocarcinoma cell line growth inhibition [KRAS2]
Conditions: for IC50: curve of first compound; for viability, T/C: stronger effect = lower value
Source text: Multicellular complex tumor spheroid response to RAS pathway inhibitors in combination with a targeted agents in patient-derived cell lines with oncogenic KRAS variants from multiple cancer types
A high-throughput screen of multi-cell type tumor spheroids was designed to identify active combinations of targeted small molecules and KRAS pathway inhibitors. Complex spheroids include a stromal component modeled by human endothelial cells (HUVEC) and fibroblasts modeled by human mesenchymal stem cells (MSCs). The concentration ranges selected for each drug and investigational agent were based upon clinically achievable concentrations if the clinical Cmax of the agent was known.
Compounds. The drugs and investigational agents: BI-3406 (NSC825286), BAY-293 (NSC824723), batoprotafib (TNO155; NSC825523), sotorasib (AMG 510; NSC818433), MRTX1257 (NSC819558), elimusertib (BAY 1895344; NSC800525), molibresib (GSK525762; NSC774829), temuterkib (LY3214996; NSC803410), venetoclax (NSC766270), alisertib (NSC759677), olaparib (NSC753686), talazoparib (NSC767125), erdafitinib (NSC781556), ipatasertib (NSC767898), cabozantinib (NSC761068), nintedanib (NSC756659), abemaciclib (NSC768073), docetaxel (NSC628503), trametinib (NSC758246), and sapanisertib (NSC764658) were obtained from the National Cancer Institute (NCI) Developmental Therapeutics Program Chemical Repository. The FDA-approved anticancer drug set is available from the Developmental Therapeutics Program. […] The stock solutions were prepared in dimethyl sulfoxide (DMSO, Sigma-Aldrich, St. Louis, MO, cat. D2650) at 800-fold the tested concentration and stored at -70 degrees C prior to their use. All drugs and investigational agents were tested over a range starting from a high concentration at or near the clinical Cmax and decreasing in half-log increments. If the clinical Cmax for an agent had not been determined, the highest concentration tested was 10 microM.
Cell Culture. All cells were maintained in an incubator at 37 degrees C and 5% CO2 with 95% humidity. The PDC lines were cultured according to standard operating procedures established by the NCI PDMR (https://pdmr.cancer.gov/sops/default.htm). Briefly, all PDCs were thawed and cultured in Matrigel-coated flasks prepared with a working solution of 1X Ham's F-12 nutrient mix, without supplementation (Invitrogen, Waltham, MA, cat. 11765054), 100 U/mL penicillin-streptomycin (Invitrogen, cat. 15140122), and 2.5% Matrigel (Corning Inc., Corning, NY, cat. 354248) for the first three passages. All PDCs were cultured in complete DMEM/F-12 media containing advanced DMEM/F-12 (Invitrogen, cat. 12634028), 4.9% defined fetal bovine serum, heat inactivated (HyClone Laboratories Inc., Logan, UT, cat. SH30070.03HI), 389 ng/mL hydrocortisone (Sigma-Aldrich, cat. H4001), 9.7 ng/mL human EGF recombinant protein (Invitrogen, cat. PHG0313), 23.4 microg/mL adenine (Sigma-Aldrich, cat. A2786), 97.3 U/mL penicillin-streptomycin (Invitrogen, cat. 15140122), 1.9 mM L-glutamine (Invitrogen, cat. 25030081), and 9.7 microM Y-27632 dihydrochloride (Tocris Bioscience, Bristol, United Kingdom, cat. 1254). The PDCs were cultured in complete DMEM/F12 media without 9.7 microM Y-27632 dihydrochloride for at least two passages prior to the screen. The established cell line HOP-62 was cultured in RPMI 1640 medium, HEPES (Invitrogen, cat. 22400105) with 10% defined fetal bovine serum (HyClone Laboratories Inc., cat. SH30070.03) and 2 mM L-glutamine (Invitrogen, cat. 25030081). The pooled donor HUVEC were cultured in endothelial cell growth medium 2 (PromoCell, Heidelberg, Germany, cat. C-22011) and the hMSC were cultured in mesenchymal stem cell growth medium 2 (PromoCell, cat. C-28009). For all experiments, HUVEC and hMSC were used at passages </=5, while the malignant cell lines were used at passages </=15. […]

[1] = second compound 0.1 µM, first compound 0.0316 µM
[2] = second compound 0.1 µM, first compound 0.1 µM
[3] = second compound 0.1 µM, first compound 0.316 µM
[4] = second compound 0.1 µM, first compound 1 µM
[5] = second compound 0.1 µM, first compound 3.16 µM
[6] = second compound 0.1 µM, first compound 10 µM
[7] = second compound 0.316 µM, first compound 0.0316 µM
[8] = second compound 0.316 µM, first compound 0.1 µM
[9] = second compound 0.316 µM, first compound 0.316 µM
[10] = second compound 0.316 µM, first compound 1 µM
[11] = second compound 0.316 µM, first compound 3.16 µM
[12] = second compound 0.316 µM, first compound 10 µM
[13] = second compound 1 µM, first compound 0.0316 µM
[14] = second compound 1 µM, first compound 0.1 µM
[15] = second compound 1 µM, first compound 0.316 µM
[16] = second compound 1 µM, first compound 1 µM
[17] = second compound 1 µM, first compound 3.16 µM
[18] = second compound 1 µM, first compound 10 µM
[19] = second compound 3.16 µM, first compound 0.0316 µM
[20] = second compound 3.16 µM, first compound 0.1 µM
[21] = second compound 3.16 µM, first compound 0.316 µM
[22] = second compound 3.16 µM, first compound 1 µM
[23] = second compound 3.16 µM, first compound 3.16 µM
[24] = second compound 3.16 µM, first compound 10 µM
[25] = second compound 10 µM, first compound 0.0316 µM
[26] = second compound 10 µM, first compound 0.1 µM
[27] = second compound 10 µM, first compound 0.316 µM
[28] = second compound 10 µM, first compound 1 µM
[29] = second compound 10 µM, first compound 3.16 µM
[30] = second compound 10 µM, first compound 10 µM
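Further: spheroids exposed to compounds for seven days before readout.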

| Structure (SMILES) | IC50 (second compound 0.1 µM) [nM] | IC50 (second compound 0.316 µM) [nM] | IC50 (second compound 1 µM) [nM] | IC50 (second compound 3.16 µM) [nM] | IC50 (second compound 10 µM) [nM] | viability, T/C [1] [%] | viability, T/C [2] [%] | viability, T/C [3] [%] | viability, T/C [4] [%] | viability, T/C [5] [%] | viability, T/C [6] [%] | viability, T/C [7] [%] | viability, T/C [8] [%] | viability, T/C [9] [%] | viability, T/C [10] [%] | viability, T/C [11] [%] | viability, T/C [12] [%] | viability, T/C [13] [%] | viability, T/C [14] [%] | viability, T/C [15] [%] | other results |
| --- | --- | --- | --- | --- | --- | --- | --- | --- | --- | --- | --- | --- | --- | --- | --- | --- | --- | --- | --- | --- | --- |
| CCNC(=O)CC1N=C(c2ccc(Cl)cc2)c2cc(OC)ccc2-n2c(C)nnc21 (stereo not given) + COc1cc2nc(C)nc(NC(C)c3cc(N)cc(C(F)(F)F)c3)c2cc1OC1CCOC1 | 93 | 106 | 99 | 56.5 | < 31.6 | 80 | 48 | 20.6 | 7.27 | 2.39 | 0.58 | 105 | 51.4 | 21.9 | 7.39 | 2.09 | 0.7 | 85.2 | 49.9 | 16.4 | viability, T/C [16]: 6.15%; viability, T/C [17]: 1.76%; viability, T/C [18]: 0.68%; viability, T/C [19]: 65.5%; viability, T/C [20]: 34.8%; viability, T/C [21]: 13.5%; viability, T/C [22]: 5.23%; viability, T/C [23]: 1.41%; viability, T/C [24]: 0.77%; viability, T/C [25]: 17%; viability, T/C [26]: 10.3%; viability, T/C [27]: 6.19%; viability, T/C [28]: 1.96%; viability, T/C [29]: 0.42%; viability, T/C [30]: 0.33% |
| COC(=O)c1ccc2c(C(=Nc3ccc(N(C)C(=O)CN4CCN(C)CC4)cc3)c3ccccc3)c(O)[nH]c2c1 + COc1cc2nc(C)nc(NC(C)c3cc(N)cc(C(F)(F)F)c3)c2cc1OC1CCOC1 | 1640 | 1050 | 1370 | 587 | < 31.6 | 113 | 97.2 | 76.1 | 78.8 | 8.68 | 15.6 | 91.2 | 121 | 83 | 56.8 | 7.24 | 13.5 | 88.9 | 103 | 90.5 | viability, T/C [16]: 64.7%; viability, T/C [17]: 9.57%; viability, T/C [18]: 11.1%; viability, T/C [19]: 66.5%; viability, T/C [20]: 92.8%; viability, T/C [21]: 78.2%; viability, T/C [22]: 25.8%; viability, T/C [23]: 5.92%; viability, T/C [24]: 0.55%; viability, T/C [25]: 41.8%; viability, T/C [26]: 28%; viability, T/C [27]: 36.7%; viability, T/C [28]: 11.3%; viability, T/C [29]: 1.15%; viability, T/C [30]: 0.2% |
| O=C(c1cc(Cc2n[nH]c(=O)c3ccccc23)ccc1F)N1CCN(C(=O)C2CC2)CC1 + COc1cc2nc(C)nc(NC(C)c3cc(N)cc(C(F)(F)F)c3)c2cc1OC1CCOC1 | 5370 | 4260 | 4960 | 1940 | 87.3 | 89.4 | 96 | 85.9 | 85.6 | 64.8 | 32.3 | 92.7 | 94.8 | 77.5 | 87.6 | 57.8 | 27.5 | 110 | 105 | 75.8 | viability, T/C [16]: 93.8%; viability, T/C [17]: 61.5%; viability, T/C [18]: 30.2%; viability, T/C [19]: 93.2%; viability, T/C [20]: 76.6%; viability, T/C [21]: 80.5%; viability, T/C [22]: 60.1%; viability, T/C [23]: 41.1%; viability, T/C [24]: 23.8%; viability, T/C [25]: 89.9%; viability, T/C [26]: 36.1%; viability, T/C [27]: 35.3%; viability, T/C [28]: 22.2%; viability, T/C [29]: 10.2%; viability, T/C [30]: 9.73% |
